Values joined by “and” are separate entries in the source; they are usually repeats but may differ in a detail not shown here. Equal entries are not always repeated.
Key:
Assay type in all cases: cell-based
As7 GFP construct = test: arsenic detection with the GFP construct in a microfluidic device
Protocol: For comparison, the arsenic concentration used for testing the GFP construct in a microfluidic device was 130 nM, or 0.13 μM. Thus, replacing GFP with Lux promises to greatly increase the sensitivity of the biosensor.
The arsenic sensor construct As7 was modified to replace the gfp gene with the luxCDABE operon, and relative induction (fluorescence or luminescence) of the two constructs was tested side-by-side using a Tecan Infinite M200 Pro plate reader (see FIG. 38). […] In contrast, the GFP construct was sensitive to arsenic only above a concentration of 26 nM. For comparison, we were able to detect an arsenic concentration of 130 nM using the GFP construct in a microfluidic device. Thus, replacing GFP with Lux promises to greatly increase the sensitivity of the biosensor.

E. coli MG1655/As7 = test: 8-strain chip induction (fluorescence induction ratio); conditions: toxin at t=0, pure water at t=2 hours; arsenic 0.2 μM
Text: (§1) An overview of the sensor can be seen in FIG. 39. In order to acquire the large amount of data required to successfully train the classifier, five replicates of the fully self-contained device prototype were built, in which the microfluidic devices are mounted and imaged using custom-designed optics as shown in some embodiments herein (Milestone 6.9). The majority of the data for this project was acquired using a novel microfluidic device capable of housing eight different bacterial strains that receive media from a shared source. […] The design was expanded to house 18 strains and we have begun taking data with this new chip to provide larger datasets to the classifier. A detailed CAD drawing of this device can be seen in FIG. 56. The 18 cell trapping regions are vacuum-loaded from 18 downstream fluidic ports. Long, serpentine channels upstream of the trapping regions serve as fluidic buffer zones to prevent the cross-contamination of strains while loading. The toxin concentration is controlled dynamically by a peristaltic pump that mixes a water/toxin combination (representing the source water stream) with a concentrated medium stock.
(§2) In each panel, the time series data for the “on-target” responding strain is plotted in bold.

[1] = tested on: E. coli MG1655 containing pRS18; test: on-chip step-induction of arsenic-sensing plasmid pRS18 (GFP); conditions: pRS18 in E. coli MG1655, M9 + 0.4% glucose
Text: Induction of pRS18, an arsenic-sensing plasmid, was first tested in the microfluidic device. A recombinant strain of E. coli MG1655 containing pRS18 was vacuum loaded into the microfluidic device, grown to confluence, and step-induced with sodium ortho-arsenite (Na3AsO3) in M9 minimal medium supplemented with 0.4% glucose. Images were collected using a Nikon Ti microscope with 4× objective magnification. Step induction was executed using the gravity-driven “Dial-AWave” automated flow control system to mix two medium sources in a defined ratio. The cells were sequentially exposed to arsenic concentrations of 0 μM, 0.1 μM, 0.5 μM, and 1 μM in 6-h windows, allowing time for the cells to respond to each concentration increase. […] We believe that the rise in GFP expression prior to the induction step is due to a small leak of inducer into the medium stream. Average fluorescence within the trapping regions of the images as well as arsenic concentration is plotted over time in FIG. 47C.

E. coli MG1655/Cr11 = test: 8-strain chip induction (fluorescence induction ratio); conditions: toxin at t=0, pure water at t=2 hours; chromium(VI) 0.5 μM
Text: as §1, §2

E. coli MG1655/Co7 = test: as above; conditions: toxin at t=0, pure water at t=2 hours; chromium(VI) 0.5 μM
Text: as §1, §2

| SMILES | arsenic concentration detected, GFP construct in microfluidic device (As7 GFP construct) [nM] | GFP response of strain As7 (E. coli MG1655/As7) | arsenic concentration detected on-chip (GFP) [1] | GFP response of strain Cr11 (E. coli MG1655/Cr11) | GFP response of strain Co7 (E. coli MG1655/Co7) |
| --- | --- | --- | --- | --- | --- |
| [As] [Arsenic] | 130 | sensitively responding | 0.1 µM and 0.13 µM |  |  |
| [Cr+6] [Chromium(VI)] |  |  |  | responding | responding |
